In patent US4604239A, “Antibiotics” (Eli Lilly and Company, priority 1985, dated 1986):
≈ marks a conversion by molar mass, not a printed value. Read-outs that look alike come from different tables or passages of the source.

Key:
Format in all cases: cell-based
[1] = tested on: Staphylococcus epidermidis; test: agar-dilution MIC
Text: (§1) The agar-dilution procedure described by the International Collaborative study (ICS) group was used to determine the minimum inhibitory concentrations (MIC's).

[2] = tested on: Streptococcus pyogenes; test: agar-dilution MIC; conditions: Streptococcus pyogenes C203; Table 17
Text: as §1

[3] = tested on: Bacteroides melaninogenicus; test: agar-dilution MIC; conditions: Bacteroides melaninogenicus 2736; Table 14
[4] = tested on: Propionibacterium acnes; test: agar-dilution MIC
Text: Antibiotic A41030 factors A, B and C have also been tested and found to be active against a genus of anaerobic bacteria identified as Propionibacterium acnes.

[5] = tested on: Peptostreptococcus anaerobius; test: agar-dilution MIC
[6] = tested on: Clostridium septicum; test: agar-dilution MIC; conditions: Clostridium septicum 1128; Table 14
[7] = tested on: Clostridium difficile
[8] = tested on: Fusobacterium necrophorum; test: agar-dilution MIC; conditions: Fusobacterium necrophorum 6054A; Table 14

For `N[C@H]1C(=O)N[C@@H]2Cc3ccc(c(Cl)c3)Oc3cc4cc(c3O)Oc3ccc(cc3Cl)[C@@H](O)[C@@H]3NC(=O)C(NC(=O)[C@@H]4NC(=O)[C@@H](NC2=O)c2cc(O)cc(c2)Oc2cc1ccc2O)c1ccc(O)c(c1)-c1c(O)cc(O)cc1[C@@H](C(=O)O)NC3=O` [A41030 factor B], the MIC ([1]; Staphylococcus epidermidis 219, end point after 24 hours, Table 18) was 0.03 µg/mL (≈ 0.025 µM), the MIC ([1]; Staphylococcus epidermidis 269, end point after 24 hours, Table 18) was 0.03 µg/mL (≈ 0.025 µM) and the MIC ([1]; Staphylococcus epidermidis 270, end point after 24 hours, Table 18) was 0.06 µg/mL (≈ 0.05 µM). For the same compound, the MIC ([1]; Staphylococcus epidermidis 285, end point after 24 hours, Table 18) was 0.03 µg/mL (≈ 0.025 µM), the MIC ([1]; Staphylococcus epidermidis EPI2, Table 17) was 0.5 µg/mL (≈ 0.417 µM) and the MIC [2] was 0.25 µg/mL (≈ 0.209 µM). The MIC [3] was 4 µg/mL (≈ 3.34 µM), the MIC ([4]; P. acnes 44, 24-hour, Table 13) was 0.06 µg/mL (≈ 0.05 µM) and the MIC ([4]; P. acnes 79, 24-hour, Table 13) was 0.06 µg/mL (≈ 0.05 µM). It also gave an MIC ([4]; P. acnes 101, 24-hour, Table 13) of 0.06 µg/mL (≈ 0.05 µM), an MIC ([4]; P. acnes 103, 24-hour, Table 13) of 0.06 µg/mL (≈ 0.05 µM) and an MIC ([4]; P. acnes 104, 24-hour, Table 13) of 0.25 µg/mL (≈ 0.209 µM). The MIC ([4]; P. acnes 105, 24-hour, Table 13) was 0.06 µg/mL (≈ 0.05 µM), the MIC ([4]; P. acnes 106, 24-hour, Table 13) was 0.06 µg/mL (≈ 0.05 µM) and the MIC ([4]; P. acnes 107, 24-hour, Table 13) was 0.06 µg/mL (≈ 0.05 µM). The MIC ([4]; P. acnes 5170, 24-hour, Table 13) was at most 0.03 µg/mL, the MIC ([4]; P. acnes 5176, 24-hour, Table 13) was 0.06 µg/mL (≈ 0.05 µM) and the MIC ([4]; P. acnes 5187, 24-hour, Table 13) was 0.06 µg/mL (≈ 0.05 µM). The MIC ([4]; P. acnes 5191, 24-hour, Table 13) was 0.06 µg/mL (≈ 0.05 µM), the MIC ([4]; P. acnes 5197, 24-hour, Table 13) was 0.06 µg/mL (≈ 0.05 µM) and the MIC ([4]; P. acnes 5226, 24-hour, Table 13) was 0.5 µg/mL (≈ 0.417 µM). The MIC ([4]; P. acnes 5227, 24-hour, Table 13) was 0.06 µg/mL (≈ 0.05 µM), the MIC ([4]; P. acnes 5228, 24-hour, Table 13) was 0.5 µg/mL (≈ 0.417 µM) and the MIC ([4]; P. acnes 5229, 24-hour, Table 13) was 0.25 µg/mL (≈ 0.209 µM). For the same compound, the MIC ([4]; P. acnes 5292, 24-hour, Table 13) was 0.06 µg/mL (≈ 0.05 µM), the MIC ([4]; Propionibacterium acnes 79, Table 14) was 16 µg/mL (≈ 13.3 µM) and the MIC ([5]; Peptostreptococcus anaerobius 1428, Table 14) was at most 0.25 µg/mL. For the same compound, the MIC ([5]; Ps. anaerobius 8, Table 15) was 0.25 µg/mL (≈ 0.209 µM), the MIC ([5]; Ps. anaerobius 52, Table 15) was 0.5 µg/mL (≈ 0.417 µM) and the MIC ([5]; Ps. anaerobius 59, Table 15) was 0.25 µg/mL (≈ 0.209 µM). It also gave an MIC ([5]; Ps. anaerobius 1418, Table 15) of 0.06 µg/mL (≈ 0.05 µM), an MIC ([5]; Ps. anaerobius 1428, Table 15) of 0.25 µg/mL (≈ 0.209 µM) and an MIC ([5]; Ps. anaerobius 1451, Table 15) of 0.25 µg/mL (≈ 0.209 µM). For the same compound, the MIC [6] was 4 µg/mL (≈ 3.34 µM), the MIC ([7]; Clostridium difficile 78, Table 16) was 0.5 µg/mL (≈ 0.417 µM) and the MIC ([7]; Clostridium difficile 107B, Table 16) was 0.5 µg/mL (≈ 0.417 µM). The MIC ([7]; Clostridium difficile 111F, Table 16) was 1.0 µg/mL (≈ 0.834 µM), the MIC ([7]; Clostridium difficile 1153, Table 16) was 1.0 µg/mL (≈ 0.834 µM) and the MIC ([7]; Clostridium difficile 2634, Table 16) was 1.0 µg/mL (≈ 0.834 µM). For the same compound, the MIC ([7]; Clostridium difficile 2994, Table 14) was 32 µg/mL (≈ 26.7 µM), the MIC ([7]; Clostridium difficile 3424-5B, Table 16) was 1.0 µg/mL (≈ 0.834 µM) and the MIC ([7]; Clostridium difficile 3816, Table 16) was 1.0 µg/mL (≈ 0.834 µM). For the same compound, the MIC ([7]; Clostridium difficile 3950D, Table 16) was 1.0 µg/mL (≈ 0.834 µM), the MIC ([7]; Clostridium difficile 6890, Table 16) was 1.0 µg/mL (≈ 0.834 µM) and the MIC ([7]; Clostridium difficile 8484, Table 16) was 1.0 µg/mL (≈ 0.834 µM). It also gave an MIC ([7]; Clostridium difficile A-194, Table 16) of 1.0 µg/mL (≈ 0.834 µM), an MIC ([7]; Clostridium difficile A-195, Table 16) of 1.0 µg/mL (≈ 0.834 µM) and an MIC ([7]; Clostridium difficile A-196, Table 16) of 1.0 µg/mL (≈ 0.834 µM). For the same compound, the MIC ([7]; Clostridium difficile A-279, Table 16) was 1.0 µg/mL (≈ 0.834 µM), the MIC ([7]; Clostridium difficile A-280, Table 16) was 0.5 µg/mL (≈ 0.417 µM) and the MIC ([7]; Clostridium difficile A-281, Table 16) was 1.0 µg/mL (≈ 0.834 µM). It also gave an MIC ([7]; Clostridium difficile WAL-2112, Table 16) of 1.0 µg/mL (≈ 0.834 µM), an MIC ([7]; Clostridium difficile WAL-3657, Table 16) of 1.0 µg/mL (≈ 0.834 µM) and an MIC ([7]; Clostridium difficile WAL-4268, Table 16) of 0.5 µg/mL (≈ 0.417 µM). It also gave an MIC [8] of 8 µg/mL (≈ 6.67 µM).
